The source of these data is ChEMBL document CHEMBL1201862, “PubChem BioAssay data set” (2004).

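These data come from cells grown in 96-well plates and exposed to compound for 48 hours at five concentrations. GI50 is the concentration that inhibits growth by half.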 Calls of active or inactive are those of the source. Cut-off read from the data, not from the text of the source: active = GI50 up to about 1.1 µM and inactive = higher. A value given as a limit tells only on which side of the number the result lay.

Test systems include HCT-116; UACC-257; ACHN; HOP-92; SK-MEL-5; SF-539; Malme-3M; EKVX; MOLT-4; NCI-H226; KM12; SNB-75; T47D; A549; TK-10; NCI-H23; HCC 2998; MCF7; MDA-N; SN12C.
Experiment in all cases: inhibition of tumour cell growth, NCI panel, 48 h

Consider `CC(=O)OCC1OC(n2c(C)c(C)c(C)c(C#N)c2=S)C(OC(C)=O)C(OC(C)=O)C1OC(C)=O` (stereo not given), for which the GI50 was 28.6 µM (inactive) with HCT-116; > 100 µM (inactive) with UACC-257; 48.5 µM (inactive) in the experiment on ACHN; 34.1 µM (inactive) in the experiment with HOP-92; > 100 µM (inactive) in the experiment with SK-MEL-5; 69.7 µM (inactive) in the experiment with SF-539. In addition, the GI50 in the experiment on Malme-3M is > 100 µM (inactive); in the experiment on EKVX, 26.2 µM (inactive); in the experiment with MOLT-4, > 100 µM (inactive); with NCI-H226, > 100 µM (inactive); with KM12, > 100 µM (inactive); with SNB-75 it was 80 µM (inactive). Further, the GI50 in the experiment with T47D was > 100 µM (inactive); in the experiment on A549 it was > 100 µM (inactive); in the experiment on TK-10 it was 46.6 µM (inactive); in the experiment on NCI-H23 it was > 100 µM (inactive); with HCC 2998, > 100 µM (inactive); in the experiment on MCF7, > 100 µM (inactive). Further, the GI50 in the experiment on MDA-N and in the experiment with SN12C was > 100 µM (inactive) each time.

Consider `O=C(CSc1nc(O)nc2[nH]cnc12)Nc1ccccc1`, for which the GI50 was 91.2 µM (inactive) in the experiment with HCT-116; 86.9 µM (inactive) in the experiment with UACC-257; > 100 µM (inactive) with ACHN; > 100 µM (inactive) in the experiment on HOP-92; 46.7 µM (inactive) in the experiment with SK-MEL-5; 26.2 µM (inactive) with SF-539. Besides, the GI50 is > 100 µM (inactive) in the experiment with Malme-3M; > 100 µM (inactive) with EKVX; 93.5 µM (inactive) in the experiment with MOLT-4; 37.1 µM (inactive) in the experiment with NCI-H226; > 100 µM (inactive) in the experiment with KM12; > 100 µM (inactive) in the experiment on SNB-75. The GI50 in the experiment on T47D was > 100 µM (inactive); in the experiment on A549, > 100 µM (inactive); in the experiment with TK-10, > 100 µM (inactive); in the experiment with NCI-H23 it was > 100 µM (inactive); in the experiment on HCC 2998 it was > 100 µM (inactive); in the experiment with MCF7 it was 44.6 µM (inactive). The GI50 with MDA-N was 57.5 µM (inactive); in the experiment with SN12C it was 48.5 µM (inactive).

For the molecule `c1cc(C[S+]2CCCC2)ccc1C[S+]1CCCC1`, the GI50 in the experiment with HCT-116, in the experiment on UACC-257, in the experiment on ACHN, in the experiment on HOP-92, with SK-MEL-5 and with SF-539 was > 100 µM (inactive) in each case. The GI50 is > 100 µM (inactive) in the experiment on Malme-3M; > 100 µM (inactive) in the experiment with EKVX; > 100 µM (inactive) in the experiment with MOLT-4; > 100 µM (inactive) in the experiment on NCI-H226; > 100 µM (inactive) in the experiment on KM12; 52.1 µM (inactive) in the experiment on SNB-75. The GI50 in the experiment on T47D was > 100 µM (inactive); in the experiment on A549, 65.5 µM (inactive); in the experiment with TK-10, > 100 µM (inactive); in the experiment with NCI-H23 it was > 100 µM (inactive); in the experiment with HCC 2998, > 100 µM (inactive); in the experiment with MCF7, > 100 µM (inactive). Also, the GI50 with MDA-N and with SN12C was > 100 µM (inactive) each time.

As to `O=C(Nc1c(Cl)cc([N+](=O)[O-])cc1Cl)C(=O)C1C(=O)NC(=S)NC1=O`, the GI50 in the experiment on HCT-116, in the experiment on UACC-257, in the experiment on ACHN, in the experiment on HOP-92, in the experiment on SK-MEL-5 and in the experiment with SF-539 was > 100 µM (inactive) throughout. Also, the GI50 is > 100 µM (inactive) in the experiment on Malme-3M; > 100 µM (inactive) in the experiment on EKVX; > 10 µM (inactive) in the experiment on MOLT-4; > 100 µM (inactive) with NCI-H226; > 100 µM (inactive) in the experiment with KM12; > 100 µM (inactive) with SNB-75. Besides, the GI50 with T47D, with A549, in the experiment with TK-10, in the experiment on NCI-H23, with HCC 2998 and in the experiment on MCF7 was > 100 µM (inactive) in each case. The GI50 with MDA-N and with SN12C was > 100 µM (inactive) in each case.

`CC(=O)OC1C(C)OC(OC(=O)C2CCC3C(C2)OC2(CC(OC(=O)/C=C/c4ccccc4)C(C)CO2)C32CO2)C(OC2OC(C)C(O)C(OC(C)=O)C2O)C1O` (stereo not given): the GI50 was < 0.01 µM (active) in the experiment with HCT-116; < 0.01 µM (active) in the experiment on UACC-257; < 0.0421 µM (active) with ACHN; < 0.01 µM (active) with HOP-92; < 0.01 µM (active) in the experiment on SK-MEL-5; < 0.01 µM (active) in the experiment on SF-539. In addition, the GI50 with Malme-3M, in the experiment on EKVX, with MOLT-4, with NCI-H226, in the experiment with KM12 and in the experiment on SNB-75 was < 0.01 µM (active) throughout. The GI50 is < 0.01 µM (active) in the experiment on T47D; < 0.01 µM (active) in the experiment with A549; 0.0131 µM (active) with TK-10; < 0.01 µM (active) with NCI-H23; < 0.01 µM (active) in the experiment on HCC 2998; < 0.01 µM (active) with MCF7. Also, the GI50 in the experiment with MDA-N and with SN12C was < 0.01 µM (active) throughout.

`C=CCN1C[C@H](C)N([C@H](c2ccc(C(=O)NC(CC)CC)cc2)c2cccc(OC)c2)C[C@H]1C`: the GI50 in the experiment with HCT-116 is 21.6 µM (inactive); in the experiment with UACC-257, 26.2 µM (inactive); in the experiment with ACHN it was 33.9 µM (inactive); in the experiment on HOP-92, 31.7 µM (inactive); in the experiment on SK-MEL-5, 17.9 µM (inactive); in the experiment on SF-539 it was 20.4 µM (inactive). Besides, the GI50 with Malme-3M was 20.4 µM (inactive); in the experiment on EKVX it was 79.4 µM (inactive); in the experiment with MOLT-4 it was > 100 µM (inactive); in the experiment with NCI-H226, 70.5 µM (inactive); with KM12, 37.7 µM (inactive); with SNB-75, > 100 µM (inactive). The GI50 with T47D was 29 µM (inactive); in the experiment with A549, 33.9 µM (inactive); with TK-10, 66.4 µM (inactive); in the experiment with NCI-H23 it was 43.2 µM (inactive); in the experiment on HCC 2998, 29.2 µM (inactive); with MCF7, 35.2 µM (inactive). Besides, the GI50 in the experiment with MDA-N was 37.3 µM (inactive); in the experiment on SN12C it was 36.8 µM (inactive).

On to `O=C1c2ccccc2-c2c1c1ccccc1c(=O)n2CCO`, for which the GI50 in the experiment with HCT-116 is 4.83 µM (inactive); with UACC-257, > 79.6 µM (inactive); in the experiment on ACHN it was 2.17 µM (inactive); in the experiment with HOP-92, 29.5 µM (inactive); in the experiment with SK-MEL-5, 8.81 µM (inactive); in the experiment with SF-539, 10.6 µM (inactive). Besides, the GI50 in the experiment with Malme-3M was 26.5 µM (inactive); with EKVX, 10 µM (inactive); with MOLT-4, 2.14 µM (inactive); with NCI-H226, 6.84 µM (inactive); in the experiment with KM12, 6.38 µM (inactive); with SNB-75 it was 25.4 µM (inactive). For the same molecule, the GI50 with T47D is 23.6 µM (inactive); with A549, 5.27 µM (inactive); with TK-10 it was > 50.5 µM (inactive); with NCI-H23 it was 14.1 µM (inactive); in the experiment with HCC 2998 it was 24.8 µM (inactive); in the experiment on MCF7 it was 4.41 µM (inactive). The GI50 in the experiment with MDA-N is 51.8 µM (inactive); in the experiment on SN12C, 10.8 µM (inactive).

With `CN(C)CCCN1c2ccccc2CCc2cccc([N+](=O)[O-])c21`, the GI50 in the experiment on HCT-116 is 15.6 µM (inactive); in the experiment with UACC-257 it was 20.4 µM (inactive); in the experiment with ACHN, 22.5 µM (inactive); in the experiment with HOP-92 it was 14.4 µM (inactive); with SK-MEL-5, 16.4 µM (inactive); in the experiment on SF-539, 17.7 µM (inactive). Also, the GI50 in the experiment on Malme-3M was 16.9 µM (inactive); in the experiment with EKVX, 49.3 µM (inactive); in the experiment with MOLT-4, 13.7 µM (inactive); in the experiment with NCI-H226 it was 22.6 µM (inactive); in the experiment on KM12, 17.1 µM (inactive); with SNB-75 it was 6.34 µM (inactive). For the same molecule, the GI50 with T47D was 13.7 µM (inactive); with A549, 37.3 µM (inactive); with TK-10, 21.5 µM (inactive); in the experiment with NCI-H23, 34.4 µM (inactive); in the experiment with HCC 2998, 17.7 µM (inactive); in the experiment on MCF7, 16.8 µM (inactive). The GI50 is 16.2 µM (inactive) with MDA-N and 21.3 µM (inactive) in the experiment on SN12C.

For the molecule `NP(=O)(OCC1=CC(=O)c2ccccc2C1=O)N(CCBr)CCBr` (stereo not given), the GI50 in the experiment with HCT-116 is 9.55 µM (inactive); in the experiment with UACC-257, 1.87 µM (inactive); with ACHN, 1.44 µM (inactive); in the experiment on HOP-92 it was 13.3 µM (inactive); in the experiment with SK-MEL-5 it was 1.31 µM (inactive); in the experiment with SF-539 it was 3.99 µM (inactive). Also, the GI50 with Malme-3M was 0.979 µM (active); with EKVX, 15.3 µM (inactive); in the experiment on MOLT-4 it was 0.634 µM (active); in the experiment on NCI-H226 it was 6.58 µM (inactive); in the experiment with KM12, 8.65 µM (inactive); with SNB-75 it was 7.26 µM (inactive). For the same molecule, the GI50 with T47D is 3.48 µM (inactive); in the experiment with A549, 4.17 µM (inactive); in the experiment with TK-10, 17.2 µM (inactive); in the experiment on NCI-H23 it was 3.03 µM (inactive); in the experiment on HCC 2998, 16 µM (inactive); with MCF7 it was 2.07 µM (inactive). The figures for the GI50 in the experiment with MDA-N and in the experiment with SN12C were 1.65 µM (inactive) and 10.6 µM (inactive), respectively.

As to `Cc1nc(=O)[nH]c2c1C(=O)N(C(C)C)C(NC(C)C)S2` (stereo not given), the GI50 with HCT-116 is > 100 µM (inactive); in the experiment on UACC-257, > 100 µM (inactive); with ACHN, > 100 µM (inactive); with HOP-92, 97.7 µM (inactive); in the experiment with SK-MEL-5, > 100 µM (inactive); with SF-539, > 100 µM (inactive). Further, the GI50 was 57.7 µM (inactive) in the experiment with Malme-3M; > 100 µM (inactive) in the experiment on EKVX; > 100 µM (inactive) in the experiment on MOLT-4; > 100 µM (inactive) in the experiment on NCI-H226; > 100 µM (inactive) in the experiment on KM12; > 100 µM (inactive) with SNB-75. In addition, the GI50 with T47D is 90.2 µM (inactive); in the experiment on A549, > 100 µM (inactive); in the experiment on TK-10, > 100 µM (inactive); in the experiment on NCI-H23 it was > 100 µM (inactive); with HCC 2998, > 100 µM (inactive); in the experiment on MCF7, > 100 µM (inactive). The GI50 in the experiment on MDA-N and with SN12C was > 100 µM (inactive) in each case.
